Experimental findings from patent US8501752B2, “Methods for treating cancer and other pathological proliferating disorders by inhibiting mitosis using pyrrolo[2,3-d]pyrimidines” (Duquesne University of the Holy Ghost, priority 2005, dated 2013) are described below.

The structures appear in SMILES notation. Where two headings read alike, the source gives them in different places.

For series [1], the system named is NCI 60 human tumor cell lines. The experiment in a line: NCI IVCLSP growth inhibition, whole panel (text summaries). The class given is cell-based. As to conditions: NCI 60 tumor panel. The protocol:
(§1) FIG. 1 presents nine compounds that were tested using the National Cancer Institute (NCI) 60 human tumor cell lines. The cells lines, which represent leukemia, melanoma, and cancers of the lung, colon, brain, ovary, breast, prostate, and kidney, are listed in Table 1.
Compounds 1-9 were tested according to the NCI Developmental Therapeutics Program (DTP) In Vitro Cell Line Screening Project (IVCLSP). […] Methodology for testing under the IVCLSP is as follows: The human tumor cell lines of the cancer screening panel are grown in RPMI 1640 medium containing 5% fetal bovine serum and 2 mM L-glutamine. For a typical screening experiment, cells are inoculated into 96 well microtiter plates in 100 μL at plating densities ranging from 5,000 to 40,000 cells/well depending on the doubling time of individual cell lines. After cell inoculation, the microtiter plates are incubated at 37° C., 5% CO2, 95% air and 100% relative humidity for 24 h prior to addition of experimental drugs.
After 24 h, two plates of each cell line are fixed in situ with TCA, to represent a measurement of the cell population for each cell line at the time of drug addition (Tz). Experimental drugs are solubilized in dimethyl sulfoxide at 400-fold the desired final maximum test concentration and stored frozen prior to use. At the time of drug addition, an aliquot of frozen concentrate is thawed and diluted to twice the desired final maximum test concentration with complete medium containing 50 μg/ml gentamicin. Additional four, 10-fold or ½ log serial dilutions are made to provide a total of five drug concentrations plus control. Aliquots of 100 μl of these different drug dilutions are added to the appropriate microtiter wells already containing 100 μl of medium, resulting in the required final drug concentrations.
Following drug addition, the plates are incubated for an additional 48 h at 37° C., 5% CO2, 95% air, and 100% relative humidity. For adherent cells, the assay is terminated by the addition of cold TCA. Cells are fixed in situ by the gentle addition of 50 μl of cold 50% (w/v) TCA (final concentration, 10% TCA) and incubated for 60 minutes at 4° C. The supernatant is discarded, and the plates are washed five times with tap water and air dried. Sulforhodamine B (SRB) solution (100 μl) at 0.4% (w/v) in 1% acetic acid is added to each well, and plates are incubated for 10 minutes at room temperature. After staining, unbound dye is removed by washing five times with 1% acetic acid and the plates are air dried. Bound stain is subsequently solubilized with 10 mM trizma base, and the absorbance is read on an automated plate reader at a wavelength of 515 nm. For suspension cells, the methodology is the same except that the assay is terminated by fixing settled cells at the bottom of the wells by gently adding 50 μl of 80% TCA (final concentration, 16% TCA). Using the seven absorbance measurements [time zero, (Tz), control growth, (C), and test growth in the presence of drug at the five concentration levels (Ti)], the percentage growth is calculated at each of the drug concentrations levels. Percentage growth inhibition is calculated as: [(Ti−Tz)/(C−Tz)]×100 for concentrations for which Ti>/=Tz [(Ti−Tz)/Tz]×100 for concentrations for which Ti<Tz.
Three dose response parameters are calculated for each experimental agent. […] The drug concentration resulting in total growth inhibition (TGI) is calculated from Ti=Tz. […]

Another series has as its system MCF-7/VP cells. As to the kind of experiment: Cytotoxicity, MCF-7/VP cells that overexpress MRP1.
The target of a further series is T1, P-glycoprotein (Homo sapiens, UniProt P08183).
T1 construct: NCI/ADR cells that overexpress P-glycoprotein; endogenous in cells; host or cells: NCI/ADR cells
T1 sequence (P08183 whole entry): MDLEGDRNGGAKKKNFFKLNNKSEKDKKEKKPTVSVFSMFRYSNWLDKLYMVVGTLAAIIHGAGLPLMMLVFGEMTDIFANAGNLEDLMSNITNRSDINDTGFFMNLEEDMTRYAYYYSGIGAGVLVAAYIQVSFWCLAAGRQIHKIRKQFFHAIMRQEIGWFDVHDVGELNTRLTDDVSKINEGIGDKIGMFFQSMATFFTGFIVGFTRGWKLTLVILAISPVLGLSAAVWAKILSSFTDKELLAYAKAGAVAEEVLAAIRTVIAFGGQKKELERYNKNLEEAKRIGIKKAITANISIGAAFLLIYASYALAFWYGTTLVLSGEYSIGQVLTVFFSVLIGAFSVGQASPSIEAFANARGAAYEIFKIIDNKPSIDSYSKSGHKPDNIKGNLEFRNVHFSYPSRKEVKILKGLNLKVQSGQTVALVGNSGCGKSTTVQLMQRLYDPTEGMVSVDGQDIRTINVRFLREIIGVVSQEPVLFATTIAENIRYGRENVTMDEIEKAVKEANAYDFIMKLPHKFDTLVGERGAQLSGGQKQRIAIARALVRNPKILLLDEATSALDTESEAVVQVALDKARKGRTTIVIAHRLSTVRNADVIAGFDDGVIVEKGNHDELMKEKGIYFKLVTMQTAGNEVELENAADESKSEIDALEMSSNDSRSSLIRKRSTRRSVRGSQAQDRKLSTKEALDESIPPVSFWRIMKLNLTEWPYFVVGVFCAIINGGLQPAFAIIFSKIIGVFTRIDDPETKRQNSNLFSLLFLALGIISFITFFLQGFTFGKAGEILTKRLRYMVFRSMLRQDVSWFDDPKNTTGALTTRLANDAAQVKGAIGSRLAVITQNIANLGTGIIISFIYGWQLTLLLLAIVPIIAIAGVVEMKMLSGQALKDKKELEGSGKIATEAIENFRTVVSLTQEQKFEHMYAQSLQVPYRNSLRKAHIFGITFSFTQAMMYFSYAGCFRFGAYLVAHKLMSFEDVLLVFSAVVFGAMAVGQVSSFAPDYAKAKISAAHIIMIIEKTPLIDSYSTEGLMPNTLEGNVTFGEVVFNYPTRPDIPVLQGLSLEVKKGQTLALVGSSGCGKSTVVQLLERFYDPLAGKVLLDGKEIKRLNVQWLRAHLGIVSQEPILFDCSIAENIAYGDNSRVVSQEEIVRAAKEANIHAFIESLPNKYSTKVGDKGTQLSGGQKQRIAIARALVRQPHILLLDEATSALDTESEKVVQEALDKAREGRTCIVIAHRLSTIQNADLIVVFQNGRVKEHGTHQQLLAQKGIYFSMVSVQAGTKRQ
The experiment in a line: P-glycoprotein antagonism: sensitivity of NCI/ADR cells to vinblastine. The class given is cell-based. As to conditions: absence or presence of 50 nM vinblastine. An excerpt: To determine if this is due to inhibition of drug transport activity by these proteins, the effects of these compounds on P-glycoprotein were further characterized. The effects of the compounds on the sensitivity of NCI/ADR cells to vinblastine and of MCF-7/VP cells to vincristine were examined to evaluate antagonism of P-glycoprotein and MRP1, respectively. FIGS. 4a-b present graphs of antagonism score versus concentration for P-glycoprotein and MRP1, respectively.
The Pgp antagonism score is calculated as the percentage survival of cells in the absence of vinblastine/percentage survival in the presence of vinblastine. […] The MRP1 antagonism score is calculated as the percentage survival of cells in the absence of vincristine/percentage survival in the presence of vincristine. […] Concentrations of Compounds 1-5 above their IC50 toward MCF-7 cells are not indicated. Data for one of three similar experiments is shown.

Series [2] relates to T24 human bladder carcinoma cells. The experiment in a line: Cytotoxicity, T24 cells. In kind it is cell-based. To be noted: mean ± SEM for 3 experiments.
The next series relates to A498. The experiment in a line: NCI IVCLSP growth inhibition (SRB), A498. The class given is cell-based, human. To be noted: renal cancer A498 cell. As to the method: as §1
Compounds 1-9 were tested according to the NCI Developmental Therapeutics Program (DTP) In Vitro Cell Line Screening Project (IVCLSP). […] Methodology for testing under the IVCLSP is as follows: The human tumor cell lines of the cancer screening panel are grown in RPMI 1640 medium containing 5% fetal bovine serum and 2 mM L-glutamine. […]
Following drug addition, the plates are incubated for an additional 48 h at 37° C., 5% CO2, 95% air, and 100% relative humidity. […] Bound stain is subsequently solubilized with 10 mM trizma base, and the absorbance is read on an automated plate reader at a wavelength of 515 nm. […] Using the seven absorbance measurements [time zero, (Tz), control growth, (C), and test growth in the presence of drug at the five concentration levels (Ti)], the percentage growth is calculated at each of the drug concentrations levels. Percentage growth inhibition is calculated as: [(Ti−Tz)/(C−Tz)]×100 for concentrations for which Ti>/=Tz [(Ti−Tz)/Tz]×100 for concentrations for which Ti<Tz.
Three dose response parameters are calculated for each experimental agent. […]

For the next series, the system named is NCI/ADR cells. The experiment in a line: Cytotoxicity, NCI/ADR cells that overexpress P-glycoprotein.
Another series relates to MCF-7 cells. As to the kind of experiment: Cytotoxicity, drug-sensitive MCF-7 cells.
The subject of the next series is WAF1. The experiment in a line: Western blot, WAF1 expression in MCF-7 cells. The class given is cell-based, human. As to conditions: 24 hours, various concentrations. The protocol: (§2) To further characterize the cell cycle effects of Compound 1 on human tumor cells, MCF-7 cells were treated for 24 hours with various concentrations of Compound 1, vinblastine, or TAXOL (paclitaxel). Cells were then harvested, lysed, and analyzed for levels of expression of p53 and WAF1 by Western Blot analyses. […] Compound 1 is identified as “149” in these figures. […] None of these treatments affected the expression of bcl-2 or P-tubulin in the MCF-7 cells.
(A western blot detects proteins with antibodies after separation by electrophoresis.)

Series [3] concerns A-10 rat smooth muscle cells. The experiment in a line: Microtubule structure, indirect immunofluorescence, A-10 cells. In kind it is cell-based. As to conditions: 24 hours; 625 nM TAXOL, 167 nM vinblastine, 900 nM Compound 1. As to the method:
Because of the morphological effects of Compound 1 on cultured cells and the NCI COMPARE analysis results described above, the effects of vinblastine, TAXOL (paclitaxel), and Compound 1 on microtubule structure were examined. For these studies, A-10 rat smooth muscle cells were used since they grow as flat monolayers that are amenable to imaging. The A-10 cells were treated for 24 hours with EtOH (control), 625 nM TAXOL (paclitaxel), 167 nM vinblastine, and 900 nM of Compound 1. Microtubules were then visualized by indirect immunofluoresence staining with B-tubulin antibodies. FIGS. 2a-d present representative fields for the control, TAXOL (paclitaxel), vinblastine, and Compound 1 (“149”), respectively. None of these compounds affected the morphology of stress fibers composed of microfilaments.

Series [4] concerns HL-60 human promyelocytic leukemia cells. As to the kind of experiment: Flow cytometric cell cycle phase distribution. To be noted: 24 hours treatment. In kind it is cell-based. The protocol:
Flow cytometric analyses were used to assess the effects of Compound 1 and various antimicrotubule drugs on the cell cycle phase distributions of HL-60 human promyelocytic leukemia cells. The percentage of cells in the G2/M phases were increased approximately 2-fold by treatment of the cells for 24 hours with either TAXOL (paclitaxel), vinblastine, colchicine, or Compound 1.
A general note: Flow cytometry measures light scatter and fluorescence of single cells or particles in a stream.

The subject of a further series is p53. The experiment in a line: Western blot, p53 expression in MCF-7 cells. The class given is cell-based, human. As to conditions: 24 hours, various concentrations. The protocol: as §2

Description for MCF-7/VP cells: These cell lines are resistant to anticancer drugs due to overexpression of the transport proteins P-glycoprotein or MRP1.

Take `COc1cccc(CCc2cn(Cc3ccccc3)c3nc(N)nc(C)c23)c1` [Compound 3]: the “GI50 values, level across the tumor cell lines (in words)” value in series [1] is on record as “micromolar range for 8 of the 56 tumor cell lines”. Moreover, the IC50 in the series on MCF-7/VP cells (read-out: Cytotoxicity IC50, MCF-7/VP, mean ± SEM for 3 experiments) was determined as 22 ± 4.2 µM; in series [2], 25 ± 2.9 µM; in the series with NCI/ADR cells (read-out: Cytotoxicity IC50, NCI/ADR, mean ± SEM for 3 experiments) it was 5.7 ± 0.7 µM; in the series with MCF-7 cells (read-out: Cytotoxicity IC50, MCF-7, mean ± SEM for 3 experiments) it was 8 ± 3.5 µM. For the same compound, the “effect on P-glycoprotein-mediated resistance (in words)” value on P-glycoprotein was “dose-dependent sensitization”. For the same compound, the “GI50 level (in words)” value with A498 is recorded as “two digit nanomolar level”. In addition, the “change of cytotoxic potency by substitution (in words)” value in the series on NCI/ADR cells (NCI/ADR, relative to unsubstituted Compound 5) is “enhanced the potency”.
Turning to `CC[C@]1(O)C[C@@H]2CN(CCc3c([nH]c4ccccc34)[C@@](C(=O)OC)(c3cc4c(cc3OC)N(C)[C@H]3[C@@](O)(C(=O)OC)[C@H](OC(C)=O)[C@]5(CC)C=CCN6CC[C@]43[C@@H]65)C2)C1` [Vinblastine, vinblastine], the “level of expression of WAF1 (in words)” value in the series with WAF1 is “marked increases”. Moreover, the IC50 in the series on MCF-7/VP cells (Homo sapiens, MCF7-VP, read-out: drug sensitivity (IC50), MCF-7/VP) turned out to be 0.003 ± 0.0006 µM. The “Resistance (MCF-7/VP relative to MCF-7)” value in the series on MCF-7/VP cells (MRP1) amounted to 1.1. Besides, in series [3], the “effect on microtubule structure (in words)” value was “caused marked depletion of cellular microtubules”. Further, the IC50 with NCI/ADR cells (Homo sapiens, NCI/ADR-RES, read-out: drug sensitivity (IC50), NCI/ADR) is over 0.375 µM. The “Resistance (NCI/ADR relative to MCF-7)” value in the series on NCI/ADR cells (P-glycoprotein) was over 134. Moreover, the “increase of the percentage of cells in the G2/M phases” value in series [4] (HL-60) is listed as “approximately 2 fold”. Besides, in series [4] (percentage of HL-60 cells), the “cell cycle distribution, G2/M” value was 10.1 ± 0.3; the “cell cycle distribution, G9/G1” value was determined as 83.3 ± 1.3; the “cell cycle distribution, S” value came out at 6.6 ± 1.6. Moreover, in the series on MCF-7 cells (Homo sapiens, MCF7, read-out: drug sensitivity (IC50), MCF-7), the IC50 turned out to be 0.0028 ± 0.0005 µM. Further, the “level of expression of p53 (in words)” value in the series with p53 was “marked increases”.
